Nine compounds from ChEMBL document CHEMBL1201862, “PubChem BioAssay data set” (2004) can be followed below.

Values joined by “and” are separate entries in the source; they are usually repeats but may differ in a detail not shown here. Equal values may be shown once.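 The compound was tested at five concentrations on cells cultured in 96-well plates, with a 48-hour exposure period. Here, GI50 denotes the concentration required for 50% inhibition of growth.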 Active and inactive are the calls of the source. Rule as the data show it: active = GI50 up to about 1.1 µM and inactive = higher. Where only a bound is given, the exact number is not on record here.

A word on the GI50: it is the concentration at which growth is held to half of that of the control.

What all share (assay): DTP human tumour cell line panel, 48 h
Assay [1] has as its system U-251.
The test system of assay [2] is TK-10.
Assay [3] has as its system SF-539.
Assay [4] has as its system T47D.
In assay [5] the test system is MDA-MB-231.
Assay [6] relates to SF-268.
Assay [7] concerns SNB-75.
Assay [8] has as its system SR.
Assay [9] concerns M14.
The test system of assay [10] is UACC-257.
The subject of assay [11] is NCI-H522.
Assay [12] relates to DU-145.
Assay [13] relates to COLO 205.
The subject of assay [14] is A549.
Assay [15] has as its system SK-MEL-2.
For assay [16], the system named is IGROV-1.
In assay [17] the test system is Hs-578T.

For `COc1ccc2c(c1)-c1nc(=S)n(CCCN(C)C)c3ccc([N+](=O)[O-])c(c13)N2`, the GI50 in assay [1] is 0.592 µM (active); in assay [2], 2.8 µM (inactive); in assay [3], 0.589 µM (active); in [4] it was 18.7 µM (inactive); in assay [5] it was 0.687 µM (active); in [6], 0.617 µM (active). The GI50 in assay [7] was 6.32 µM (inactive); in assay [8] it was 0.506 µM (active); in assay [9], 8.26 µM (inactive); in [10], 1.22 µM (inactive); in assay [11], 0.766 µM (active); in [12] it was 0.689 µM (active). The GI50 in assay [13] is 0.656 µM (active); in assay [14], 0.363 µM (active); in assay [15] it was 14.7 µM (inactive); in assay [16], 0.345 µM (active); in assay [17], 1.72 µM (inactive).

As to `NCCCc1nonc1C(=O)O`, the GI50 in assay [1], in assay [2], in [3], in assay [4], in assay [5] and in assay [6] was > 100 µM (inactive) in each case. For the same compound, the GI50 in assay [7], in assay [8], in assay [9], in [10], in assay [12] and in assay [13] was > 100 µM (inactive) in each case. Besides, the GI50 in [14], in assay [15], in [16] and in assay [17] was > 100 µM (inactive) throughout.

As to `CCOC(=O)C1Cc2ccc(C)cc2C1=O` (configuration not stated), the GI50 in [1] is 58.1 µM (inactive); in [2] it was > 100 µM (inactive); in assay [3] it was > 100 µM (inactive); in [4] it was > 100 µM (inactive); in [5], > 100 µM (inactive); in assay [6], 79.3 µM (inactive). Further, the GI50 was > 100 µM (inactive) in assay [7]; 31.7 µM (inactive) in [8]; > 100 µM (inactive) in assay [9]; > 100 µM (inactive) in assay [10]; > 100 µM (inactive) in assay [12]; > 100 µM (inactive) in assay [13]. The GI50 in assay [14] is > 100 µM (inactive); in assay [15], > 100 µM (inactive); in [16] it was 70.6 µM (inactive); in assay [17], > 100 µM (inactive).

`COC(=O)C1CCC(=O)N1CN(C(C)=O)c1ccccc1` (configuration not stated): the GI50 in assay [1], in [2], in assay [3], in assay [4], in assay [5] and in [6] was > 100 µM (inactive) throughout. Further, the GI50 in assay [7] was > 100 µM (inactive); in [8], 3.39 µM (inactive); in assay [9], > 100 µM (inactive); in assay [10], > 100 µM (inactive); in [11] it was > 100 µM (inactive); in assay [12], > 100 µM (inactive). Also, the GI50 in [13], in [14], in assay [15], in assay [16] and in assay [17] was > 100 µM (inactive) throughout.

As for `COC(=O)CCCC(=O)NC1=C(Nc2ccc(OC)cc2)C(=O)c2ccccc2C1=O`, the GI50 in assay [1] was 31.4 µM (inactive); in assay [2] it was > 100 µM (inactive); in [3], 19.3 µM (inactive); in [4] it was 41.3 µM (inactive); in assay [5], 30.1 µM (inactive); in assay [6], 45.6 µM (inactive). The GI50 in assay [7] is 32.2 µM (inactive); in assay [8], 33.1 µM (inactive); in [9], 19.4 µM (inactive); in assay [10] it was 18.1 µM (inactive); in assay [11], 37.5 µM (inactive); in assay [12], 16.3 µM (inactive). Besides, the GI50 in assay [13] is 25.4 µM (inactive); in [14] it was 22.3 µM (inactive); in assay [15], 17.9 µM (inactive); in assay [16] it was 18 µM (inactive); in assay [17], 22.8 µM (inactive).

Turning to `C=C(C(=O)O)[C@@H]1C[C@@H]2O[C@H]1[C@@H](O)[C@@H](C)CCCC(C)=CCC[C@@]2(C)O`, the GI50 in [1] is > 100 µM (inactive) and 97.3 µM (inactive); in assay [2], > 100 µM (inactive) and > 52.1 µM (inactive); in [3], 87.5 µM (inactive); in assay [4], > 100 µM (inactive) and > 84.9 µM (inactive); in [5], > 100 µM (inactive); in assay [6], > 100 µM (inactive). For the same compound, the GI50 in assay [7] was > 100 µM (inactive); in [8], 49.1 µM (inactive); in assay [9], > 100 µM (inactive) and > 77.4 µM (inactive); in [10], > 100 µM (inactive); in assay [12] it was > 100 µM (inactive); in assay [13], > 100 µM (inactive) and 72.6 µM (inactive). In addition, the GI50 in assay [14] is > 100 µM (inactive); in [15] it was > 100 µM (inactive); in assay [16], 92.9 µM (inactive) and > 75 µM (inactive); in assay [17], > 100 µM (inactive).

With `CC(=O)OCC1OC(N2C(=O)CC(N)=Nc3ccccc32)C(OC(C)=O)C(OC(C)=O)C1OC(C)=O` (configuration not stated), the GI50 is 59.7 µM (inactive) in assay [1]; 75 µM (inactive) in assay [2]; 23.2 µM (inactive) in assay [3]; 20.5 µM (inactive) in assay [4]; > 100 µM (inactive) in assay [5]; 45.4 µM (inactive) in [6]. Also, the GI50 was 29.8 µM (inactive) in [7]; 41 µM (inactive) in assay [8]; 38.6 µM (inactive) in assay [9]; 32.4 µM (inactive) in assay [10]; 63.4 µM (inactive) in [12]; 15.1 µM (inactive) in [13]. In addition, the GI50 in assay [14] was > 100 µM (inactive); in [15] it was 48.4 µM (inactive); in [16], 45.1 µM (inactive); in assay [17] it was > 100 µM (inactive).

Consider `Nc1ccccc1.O=P(O)(OP(=O)(O)c1ccccc1)c1ccccc1`, for which the GI50 in assay [1], in [2], in [4], in [5], in assay [6] and in assay [7] was > 100 µM (inactive) each time. Moreover, the GI50 in assay [8], in assay [9], in assay [10], in assay [11], in [12] and in [13] was > 100 µM (inactive) throughout. Moreover, the GI50 in assay [14], in assay [15], in [16] and in assay [17] was > 100 µM (inactive) each time.

Turning to `CC1(C)OC(=O)C(C#N)=C1C[n+]1ccccc1`, the GI50 in assay [1], in assay [2], in [3], in [4], in [5] and in assay [6] was > 10 µM (inactive) throughout. Further, the GI50 in assay [7], in assay [8], in assay [9], in [10], in [11] and in assay [12] was > 10 µM (inactive) in each case. In addition, the GI50 in assay [13], in [15], in assay [16] and in [17] was > 10 µM (inactive) in each case.
